Measurements: PubChem BioAssay (NCI)
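48-hour exposure; five concentrations; linearly interpolated endpoints. TGI: total growth inhibition.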

Columns and labels:
Test in all cases: inhibition of tumour cell growth, NCI panel, 48 h
786-0 renal = tested on: 786-0 renal
A498 renal = tested on: A498 renal
A549 NSCLC = tested on: A549 NSCLC
ACHN renal = tested on: ACHN renal
CAKI-1 renal = tested on: CAKI-1 renal
CCRF-CEM leukemia = tested on: CCRF-CEM leukemia
COLO 205 colon = tested on: COLO 205 colon
DLD-1 colon = tested on: DLD-1 colon
DMS 114 small cell lung = tested on: DMS 114 small cell lung
DMS 273 small cell lung = tested on: DMS 273 small cell lung
EKVX NSCLC = tested on: EKVX NSCLC
HCC-2998 colon = tested on: HCC-2998 colon
HCT-116 colon = tested on: HCT-116 colon
HCT-15 colon = tested on: HCT-15 colon
HL-60(TB) leukemia = tested on: HL-60(TB) leukemia
HOP-18 NSCLC = tested on: HOP-18 NSCLC
HOP-62 NSCLC = tested on: HOP-62 NSCLC
HOP-92 NSCLC = tested on: HOP-92 NSCLC
HT29 colon = tested on: HT29 colon
IGROV1 ovarian = tested on: IGROV1 ovarian
K-562 leukemia = tested on: K-562 leukemia
KM12 colon = tested on: KM12 colon
KM20L2 colon = tested on: KM20L2 colon
LOX IMVI melanoma = tested on: LOX IMVI melanoma
LXFL 529 NSCLC = tested on: LXFL 529 NSCLC
M14 melanoma = tested on: M14 melanoma
M19-MEL melanoma = tested on: M19-MEL melanoma
MALME-3M melanoma = tested on: MALME-3M melanoma
MOLT-4 leukemia = tested on: MOLT-4 leukemia
NCI-H226 lung = tested on: NCI-H226 lung
NCI-H23 lung = tested on: NCI-H23 lung
NCI-H460 lung = tested on: NCI-H460 lung
OVCAR-3 ovarian = tested on: OVCAR-3 ovarian
OVCAR-5 ovarian = tested on: OVCAR-5 ovarian
OVCAR-8 ovarian = tested on: OVCAR-8 ovarian
SF-268 CNS = tested on: SF-268 CNS
SF-295 CNS = tested on: SF-295 CNS
SF-539 CNS = tested on: SF-539 CNS
SK-MEL-2 melanoma = tested on: SK-MEL-2 melanoma
SK-MEL-28 melanoma = tested on: SK-MEL-28 melanoma
SK-MEL-5 melanoma = tested on: SK-MEL-5 melanoma
SK-OV-3 ovarian = tested on: SK-OV-3 ovarian
SN12C renal = tested on: SN12C renal
SNB-19 CNS = tested on: SNB-19 CNS
SNB-75 CNS = tested on: SNB-75 CNS
SNB-78 CNS = tested on: SNB-78 CNS
SR leukemia = tested on: SR leukemia
SW-620 colon = tested on: SW-620 colon
TK-10 renal = tested on: TK-10 renal
U251 CNS = tested on: U251 CNS
UACC-257 melanoma = tested on: UACC-257 melanoma
UACC-62 melanoma = tested on: UACC-62 melanoma
UO-31 renal = tested on: UO-31 renal
XF 498 CNS = tested on: XF 498 CNS
NCI-H522 lung = tested on: NCI-H522 lung
OVCAR-4 ovarian = tested on: OVCAR-4 ovarian
RPMI-8226 leukemia = tested on: RPMI-8226 leukemia

COc1cc2c(c(OC)c1OC)-c1[nH]ncc1CC2
TGI (786-0 renal): > 100 µM
TGI (A498 renal): > 100 µM
TGI (A549 NSCLC): > 100 µM
TGI (ACHN renal): > 100 µM
TGI (CAKI-1 renal): > 100 µM
TGI (CCRF-CEM leukemia): > 100 µM
TGI (COLO 205 colon): > 100 µM
TGI (DLD-1 colon): > 100 µM
TGI (DMS 114 small cell lung): > 100 µM
TGI (DMS 273 small cell lung): > 100 µM
TGI (EKVX NSCLC): > 100 µM
TGI (HCC-2998 colon): > 100 µM
TGI (HCT-116 colon): > 100 µM
TGI (HCT-15 colon): > 100 µM
TGI (HL-60(TB) leukemia): > 100 µM
TGI (HOP-18 NSCLC): > 100 µM
TGI (HOP-62 NSCLC): > 100 µM
TGI (HOP-92 NSCLC): > 100 µM
TGI (HT29 colon): > 100 µM
TGI (IGROV1 ovarian): > 100 µM
TGI (K-562 leukemia): > 100 µM
TGI (KM12 colon): > 100 µM
TGI (KM20L2 colon): > 100 µM
TGI (LOX IMVI melanoma): > 100 µM
TGI (LXFL 529 NSCLC): > 100 µM
TGI (M14 melanoma): > 100 µM
TGI (M19-MEL melanoma): > 100 µM
TGI (MALME-3M melanoma): > 100 µM
TGI (MOLT-4 leukemia): > 100 µM
TGI (NCI-H226 lung): > 100 µM
TGI (NCI-H23 lung): > 100 µM
TGI (NCI-H460 lung): > 100 µM
TGI (OVCAR-3 ovarian): > 100 µM
TGI (OVCAR-5 ovarian): > 100 µM
TGI (OVCAR-8 ovarian): > 100 µM
TGI (SF-268 CNS): > 100 µM
TGI (SF-295 CNS): > 100 µM
TGI (SF-539 CNS): > 100 µM
TGI (SK-MEL-2 melanoma): > 100 µM
TGI (SK-MEL-28 melanoma): > 100 µM
TGI (SK-MEL-5 melanoma): > 100 µM
TGI (SK-OV-3 ovarian): > 100 µM
TGI (SN12C renal): > 100 µM
TGI (SNB-19 CNS): > 100 µM
TGI (SNB-75 CNS): > 100 µM
TGI (SNB-78 CNS): > 100 µM
TGI (SR leukemia): > 100 µM
TGI (SW-620 colon): > 100 µM
TGI (TK-10 renal): > 100 µM
TGI (U251 CNS): > 100 µM
TGI (UACC-257 melanoma): > 100 µM
TGI (UACC-62 melanoma): > 100 µM
TGI (UO-31 renal): > 100 µM
TGI (XF 498 CNS): > 100 µM

CC1=CC(C)(C)N=C2SC(c3ccc(Cl)cc3)=NN12
TGI (786-0 renal): 32.8 µM
TGI (A498 renal): 83.6 µM
TGI (A549 NSCLC): > 100 µM
TGI (ACHN renal): > 100 µM
TGI (CAKI-1 renal): > 100 µM
TGI (CCRF-CEM leukemia): > 100 µM
TGI (COLO 205 colon): > 100 µM
TGI (DLD-1 colon): 58.1 µM
TGI (DMS 114 small cell lung): > 100 µM
TGI (DMS 273 small cell lung): > 100 µM
TGI (EKVX NSCLC): > 100 µM
TGI (HCC-2998 colon): > 100 µM
TGI (HCT-15 colon): > 100 µM
TGI (HL-60(TB) leukemia): 32.5 µM
TGI (HOP-18 NSCLC): 80.5 µM
TGI (HOP-62 NSCLC): > 100 µM
TGI (HOP-92 NSCLC): 61.5 µM
TGI (HT29 colon): 38.7 µM
TGI (IGROV1 ovarian): > 100 µM
TGI (K-562 leukemia): > 100 µM
TGI (KM12 colon): > 100 µM
TGI (KM20L2 colon): > 100 µM
TGI (LOX IMVI melanoma): > 100 µM
TGI (LXFL 529 NSCLC): > 100 µM
TGI (M14 melanoma): > 100 µM
TGI (M19-MEL melanoma): > 100 µM
TGI (MALME-3M melanoma): 75.6 µM
TGI (MOLT-4 leukemia): 51 µM
TGI (NCI-H226 lung): 55.4 µM
TGI (NCI-H23 lung): 81.5 µM
TGI (NCI-H460 lung): > 100 µM
TGI (NCI-H522 lung): 46.4 µM
TGI (OVCAR-3 ovarian): 92.1 µM
TGI (OVCAR-4 ovarian): > 100 µM
TGI (OVCAR-5 ovarian): 53.7 µM
TGI (RPMI-8226 leukemia): 49.8 µM
TGI (SF-268 CNS): > 100 µM
TGI (SF-295 CNS): > 100 µM
TGI (SF-539 CNS): > 100 µM
TGI (SK-MEL-2 melanoma): > 100 µM
TGI (SK-MEL-28 melanoma): > 100 µM
TGI (SK-MEL-5 melanoma): 33.9 µM
TGI (SK-OV-3 ovarian): > 100 µM
TGI (SNB-19 CNS): > 100 µM
TGI (SNB-78 CNS): > 100 µM
TGI (SW-620 colon): > 100 µM
TGI (TK-10 renal): > 100 µM
TGI (U251 CNS): 90.9 µM
TGI (UACC-257 melanoma): > 100 µM
TGI (UACC-62 melanoma): > 100 µM
TGI (UO-31 renal): 50.4 µM
TGI (XF 498 CNS): 51.8 µM
